Experimental data reported in PMC9474448, “Assembly of transmembrane pores from mirror-image peptides” (Nature Communications, 2022).

Columns and labels:
Format in all cases: binding
[1] = system: DpPorA; assay: Single-molecule sensing: analyte blocking of single DpPorA pore; conditions: 1 M KCl; for ion current blockage of single DpPorA (in words): 10 mM HEPES pH 7.4, am8γCD 10 μM trans at positive voltages, γCD, s8γCD 100 μM cis, D9, R4 10 μM cis
Protocol: (§1) Electrical recordings were carried out by using bilayers of 1,2-diphytanoyl-sn-glycero-3-phosphocholine (DPhPC, Avanti Polar Lipids) formed across ~100 µm in diameter polytetrafluoroethylene (Teflon) film of 25 µm thick (Goodfellow, Cambridge)[59]. The Teflon film is sandwiched between two sides of the Delrin bilayer chamber, called cis and trans compartments (500 µL each). Solvent-free bilayers were formed by pre-treating the aperture with hexadecane in n-pentane (1 μL, 5 mg mL^−1) on each side of the bilayer chamber. Then the bilayer chamber was filled with the electrolyte solution (1 M KCl, 10 mM HEPES, pH 7.4) and DPhPC in n-pentane (2 μL, 5 mg mL^−1) was added to both sides of the chamber. After 5 min, a bilayer was formed when the electrolyte was raised, bringing the two lipid surface monolayers together at the aperture. pPorA pores were formed by adding self-assembled preoligomers extracted from the SDS PAGE gel to the cis side of the chamber. The cWza pores were formed by adding peptide solution in 0.1% DDM (1 µL, 100 µg mL^−1) to the cis side. The cis chamber was connected to the grounded electrode and the trans chamber was attached to the working electrode. A potential difference was applied through a pair of Ag/AgCl electrodes, set in 3% agarose containing 3.0 M KCl. We investigated the ion selectivity of pores using the KCl salt gradient applied across the bilayer chambers (1 M cis /0.15 M trans). The reverse potential was determined to calculate the permeability ratio of K^+ and Cl^- ions across the pore (Supplementary text). The current was amplified using an Axopatch 200B amplifier, digitized with a Digidata 1550B digitizer (pCLAMP 11.0, Molecular Devices, CA) with a low-pass filter frequency of 10 kHz and a sampling frequency of 50 kHz or a low-pass filter frequency of 2 kHz and a sampling frequency of 10 kHz. Single-channel data analysis was conducted using Clampfit 11.0 (Molecular devices, CA). Histogram plotting were performed in OriginPro 2022 (OriginLab).

[2] = system: LpPorA; assay: Single-channel analyte blocking of LpPorA pore; conditions: +50 mV; am8γCD 1 µM trans; 1 M KCl; n = 3
Protocol: as §1, with “A potential difference was applied through a pair of Ag/AgCl electrodes, set in 3% agarose containing 3.0 M KCl. We investigated the ion selectivity of pores using the KCl salt gradient applied across the bilayer chambers (1 M cis /0.15 M trans).” left out, “The current was amplified using an Axopatch 200B amplifier, digitized with a Digidata 1550B digitizer (pCLAMP 11.0, Molecular Devices, CA) with a low-pass filter frequency of 10 kHz and a sampling frequency of 50 kHz or a low-pass filter frequency of 2 kHz and a sampling frequency of 10 kHz. Single-channel data analysis was conducted using Clampfit 11.0 (Molecular devices, CA). Histogram plotting were performed in OriginPro 2022 (OriginLab).” left out

[3] = system: DcWza; assay: Single-channel analyte blocking of DcWza pore; conditions: 100 μM, trans; +100 mV; 1 M KCl, 10 mM HEPES, pH 7.4
Protocol: as §1, with “A potential difference was applied through a pair of Ag/AgCl electrodes, set in 3% agarose containing 3.0 M KCl. We investigated the ion selectivity of pores using the KCl salt gradient applied across the bilayer chambers (1 M cis /0.15 M trans).” left out, “The current was amplified using an Axopatch 200B amplifier, digitized with a Digidata 1550B digitizer (pCLAMP 11.0, Molecular Devices, CA) with a low-pass filter frequency of 10 kHz and a sampling frequency of 50 kHz or a low-pass filter frequency of 2 kHz and a sampling frequency of 10 kHz. Single-channel data analysis was conducted using Clampfit 11.0 (Molecular devices, CA). Histogram plotting were performed in OriginPro 2022 (OriginLab).” left out

`OC[C@H]1O[C@@H]2O[C@H]3[C@H](O)[C@@H](O)[C@@H](O[C@H]4[C@H](O)[C@@H](O)[C@@H](O[C@H]5[C@H](O)[C@@H](O)[C@@H](O[C@H]6[C@H](O)[C@@H](O)[C@@H](O[C@H]7[C@H](O)[C@@H](O)[C@@H](O[C@H]8[C@H](O)[C@@H](O)[C@@H](O[C@H]9[C@H](O)[C@@H](O)[C@@H](O[C@H]1[C@H](O)[C@H]2O)O[C@@H]9CO)O[C@@H]8CO)O[C@@H]7CO)O[C@@H]6CO)O[C@@H]5CO)O[C@@H]4CO)O[C@@H]3CO` [γCD] was tested, and the “ion current blockage of single DpPorA (in words)” value [1] was “did not produce any current blockages”.
In the case of `NCC1OC2OC3C(CN)OC(OC4C(CN)OC(OC5C(CN)OC(OC6C(CN)OC(OC7C(CN)OC(OC8C(CN)OC(OC9C(CN)OC(OC1C(O)C2O)C(O)C9O)C(O)C8O)C(O)C7O)C(O)C6O)C(O)C5O)C(O)C4O)C(O)C3O` (centres unmarked) [am8γCD], the “mean blockage time (τoff)” value [2] is reported as 0.22 ± 0.03 ms, the “ion current blockage of DcWza in the open state (in words)” value [3] is reported as “no blockages were observed” and the “pore block (closure) of DpPorA (S)” value ([1]; 10 μM analyte, cis, negative voltages) is reported as 100%. The “ion current blockage of single DpPorA (in words)” value [1] was “complete pore closure”.
